Test results taken from BigSolDB 2.1.

Q: Which results are given for `Cc1ccc(Nc2nccc(N(C)c3ccc4c(C)n(C)nc4c3)n2)cc1S(N)(=O)=O`?
A: solubility (mole fraction) (in acetonitrile, 288.15 K): 1.08e-06; solubility (mole fraction) (in acetonitrile, 293.15 K): 3.07e-06; solubility (mole fraction) (in acetonitrile, 298.15 K): 5.16e-06; solubility (mole fraction) (in acetonitrile, 303.15 K): 7.86e-06; solubility (mole fraction) (in acetonitrile, 308.15 K): 1.11e-05; solubility (mole fraction) (in acetonitrile, 313.15 K): 1.44e-05; solubility (mole fraction) (in acetonitrile, 318.15 K): 1.8e-05; solubility (mole fraction) (in acetonitrile, 323.15 K): 2.21e-05; solubility (mole fraction) (in acetonitrile, 328.15 K): 2.72e-05; solubility (mole fraction) (in n-butanol, 288.15 K): 1.07e-05; solubility (mole fraction) (in n-butanol, 293.15 K): 1.46e-05; solubility (mole fraction) (in n-butanol, 298.15 K): 1.88e-05; solubility (mole fraction) (in n-butanol, 303.15 K): 2.34e-05; solubility (mole fraction) (in n-butanol, 308.15 K): 2.86e-05; solubility (mole fraction) (in n-butanol, 313.15 K): 3.42e-05; solubility (mole fraction) (in n-butanol, 318.15 K): 4.04e-05; solubility (mole fraction) (in n-butanol, 323.15 K): 4.7e-05; solubility (mole fraction) (in n-butanol, 328.15 K): 5.43e-05; solubility (mole fraction) (in n-propanol, 288.15 K): 9.96e-06; solubility (mole fraction) (in n-propanol, 293.15 K): 1.33e-05; solubility (mole fraction) (in n-propanol, 298.15 K): 1.67e-05; solubility (mole fraction) (in n-propanol, 303.15 K): 2.09e-05; solubility (mole fraction) (in n-propanol, 308.15 K): 2.55e-05; solubility (mole fraction) (in n-propanol, 313.15 K): 3.1e-05; solubility (mole fraction) (in n-propanol, 318.15 K): 3.65e-05; solubility (mole fraction) (in n-propanol, 323.15 K): 4.39e-05; solubility (mole fraction) (in n-propanol, 328.15 K): 5.11e-05
